Test results: patent US11890268B2, “Dibenzothiophene derivatives and methods of treating cancer therewith” (Saint Louis University, priority 2018, dated 2024)

Assays:
[1] = Deoxygenation of sulfoxide to sulfide on UV-A exposure in plate well, HPLC; format: physicochemical; details: for Sulfide Concentration 30 Minutes After UV Exposure: Table 3; for Sulfide (MA-4) Concentration: addition of drug pre-UV exposure, n = 4
Method: (§1) MDA-MB-231 breast cancer cells were plated at 10,000 cells/well on three 96 well plates. After 24 hours incubation at 37° C., varying concentrations of MA-3 and MA-4 were added and incubated for 1 hour at 37° C. on only two plates (pre-UV and no UV exposure). One plate with cells were then left at room temperature covered for 30 min (no UV). The second plate (pre-UV) and the third plate (post-UV) were exposed to UV-A in a Luzchem photoreactor with 8 LZC-UVA lamps for 30 min. Varying concentrations of MA-3 and MA-4 were added to post UV exposure plate after irradiation. Plates were then incubated for 24 hours at 37° C. and then a MTS cell viability assay (Promega) was performed. Cell viability assay was run on a Flexstation3 mulitmode plate reader and percent viability was calculated. Statistical analyses were performed using GraphPad Prism program.
The concentrations were determined using HPLC injections on Agilent Technologies 1200 series HPLC—quaternary pump. The experiment was carried out in two trials consisting of duplicate studies.

[2] = tested on: MDA-MB-231 breast cancer cells; assay: MTS cell viability assay with UV-A irradiation; format: cell-based
Method: as §1

O=S(=O)(Oc1ccccc1)c1ccc2c(c1)c1cc(-c3ccc(-c4ccccc4)cc3)ccc1[s+]2[O-] (stereo not shown) [Compound 5a]
Sulfide Concentration 30 Minutes After UV Exposure ([1]; starting concentration 10 μM): 3.3 ± 1.4 µM

CC(=O)OCc1ccc2c(c1)c1cc(COC(C)=O)ccc1[s+]2[O-] [MA-3, 5-oxo-2,8-diacetoxymethyldibenzothiophene]
Sulfide (MA-4) Concentration ([1]; Concentration of MA-3 10 μM): 9.653 ± 0.170 µM
Sulfide (MA-4) Concentration ([1]; Concentration of MA-3 100 μM): 90.02 ± 4.87 µM
Sulfide Concentration 30 Minutes After UV Exposure ([1]; starting concentration 100 μM): 90 ± 3 µM
% cell viability ([2]; compound added pre-UV exposure, cells irradiated with UV-A): decreases % cell viability
% cell viability ([2]; compound added pre-UV exposure, cells irradiated with UV-A, listed as 5-oxo-2,8-diacetoxymethyldibenzothiophene): a decrease in % cell viability

CC(=O)OCc1ccc2sc3ccc(COC(C)=O)cc3c2c1 [MA-4]
% cell viability ([2]; any of the UV-exposure conditions (no UV, pre-UV, post-UV)): did not decrease % cell viability
